Source: US20120010178A1, “METHODS AND COMPOUNDS FOR TREATMENT OF NEURODEGENERATIVE DISORDERS” (PRESIDENT AND FELLOWS OF HARVARD COLLEGE, priority 2008, published 2012)
“Also recorded” adds a separate entry of the source.

What was measured:
PC12 cells = conditions: cited from earlier work
SMN [1] = assay: SMN levels in human motor neurons derived from patient iPS cells; assay type: cell-based; conditions: two days after treatment
Procedure: GFP expressing motor neurons were derived from an […] patient iPS cells as described below. After growing for approximately 1 week, motor neurons were treated with allsterpaullone. Two days after treatment with allsterpaullone, cells were fixed and stained with SMN antibody or GFP antibody. […] Induced pluripotent stem cells were generated from an SMA patient fibroblast line from Coriell (GM09677) and differentiated into motor neurons according to methods adapted from Dimos, J. T., et. al. Science (2008) 321, 1218-122, Epub Jul. 31, 2008).

SMN [2] = assay: High-content fibroblast screen for compounds that modulate SMN level; conditions: human fibroblasts, 2-3 days with compound;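 also: Anti-SMN immunostaining with confocal imaging of nuclear and cytoplasmic SMN and gem counts, tested at 0.1, 1 and 10 uM, fold change relative to negative control wells on each plate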
Procedure: Human fibroblasts were incubated for 2-3 days with compounds from annotated collections. Cells were fixed and stained with an anti-SMN antibody. Confocal imaging was used to quantify SMN fluorescence in nucleus and cytoplasm and count Gems. Data were collected and subsequently analyzed by clustering compounds by suspected mechanism of action and chemical structure.
Following optimization of assay conditions on day 0, total of 500 human fibroblasts (GM09677 line) per well were seeded in 384-well plates, on day 3 they were treated with compounds (robot CyBio) from the annotated collections and on the 5 day plates were fixed and stained (robot MAPD) with an anti-SMN antibody and secondary antibody conjugated with 448 fluorophore (FIG. 19a). Compounds from the libraries were added in duplicate at three final concentrations of 10, 1 and 0.1 uM.
SMN detection was done on the automated confocal microscope Opera PerkinElmer with separate fluorescent exposures to 488 nM laser for and a UV light source to detect nuclei stained with Hoechst 33258 with a 20× objective.
After scanning on the Opera, an XML file extraction workflow, designed with Inforsense KDE, was used to assemble the data from multiple replicate plates of each HCS experiment including the quantitative parameters described above and chemical identities, chemical concentrations and indications of which wells were used for positive and negative controls. […] The fold-induction of SMN intensity values for each well treated with a library chemical were normalized to the SMN average intensity in multiple negative control wells per plate.
Since it is not known which form of SMN increase is the most essential, hits that scored in a duplicate at least in two different parameters greater than 1.3 fold at any of the three concentrations were selected (FIG. 19d). […] Further, 220 compounds were screened in the absence of anti-SMN primary antibody with the same assay conditions, to filter out the fluorescent compounds.

[3] = system: ES-cell derived Motor Neurons with SMN knockdown; assay: Motor neuron survival assay after SMN knockdown (shRNA lentivirus); assay type: cell-based, mouse; conditions: for surviving motor neurons compared to DMSO: 1.25 and 2.5 uM
Source text: To test for survival, motor neurons were infected with three lentiviral constructs acquired from Open Biosystems (pGIPZ): a non-silencing (NS) shRNA and two with unique shRNA sequences directed against the Smn transcript. […] Quantification of SMN knockdown were made in 3T3 cells (FIGS. 39a-39b) and in motor neurons by sorting ES cell derived motor neurons (cherry positive) infected with the pGIPZ lentiviruses (GFP positive cells) by FACS and quantifying the amount of SMN by Western blot.
Effect of reduced SMN levels on motor neuron survival was investigated next. Motor neurons were plated and infected with the various lentiviral constructs. […] To test the effects of SMN increasing compounds, we added them to motor neurons two days after lentiviral infection. Over the course of the subsequent three days, we counted live cherry expressing motor neurons on a daily basis.
Mouse ES-cells expressing cherry fluorescent protein (CFP) under control of a Hb9 promoter, a motor neuron specific transcription factor, were used to differentiate motor neurons as described in Example 31. Motor neurons were infected with the three constructs that were acquired from Open Biosystems (pGIPZ): a non-silencing (NS) shRNA and two constructs with unique shRNA sequences directed against the Smn transcript. […] First we performed motor neuron survival assays to test whether reduced levels of SMN will affect viability of these motor neurons. We differentiated mES cells with Hb9-Chemy Fluorescent Protein (Hb9-CFP) in to motor neurons expressing CFP, that later we dissociated and plated on DIV0. Cells were infected with the NS pGIPZ virus, SMN#1 pGIPZ virus, SMN#2 pGIPZ virus or no virus on DIV 1. The percentage of surviving motor neuron was normalized to the uninfected control culture. […] The percentage of surviving motor neuron was normalized to the culture infected with control non-targeting shRNA.

[4] = system: kinase phosphorylation sites (Akt, RSK1, p38, GSKa/b, Erk1/2); assay: Phospho-kinase antibody array of PDGF treated fibroblasts; assay type: cell-based, human; conditions: 50 ng/ml, 30 min
Procedure: Although there is much more known about growth factor specificity and downstream pathways that they activate, whether PDGF effect on SMN was mediated through the binding to the PDGFR was tested next. The SMN-increasing effects of PDGF were blocked by DMPQ and […], two small molecules inhibitors of the PDGF receptor (FIG. 21a). In addition PDGF neutralizing antibody titration were performed in the cells incubated with 20 ng/ml platelet-derived PDGF. Depending on the antibody concentration, gradient of SMN level decrease reaching 40% was observed (FIG. 21b). Moreover, as might be predicted, since there are appreciable levels of PDGF in the media serum in which the fibroblasts are normally maintained, simply adding PDGFR inhibitors DMPQ and AG-1296 to the media decreases the “basal” level of SMN in these cells down to 15-20%, (FIG. 22). Same effect was reproduced by adding PDGF neutralizing antibody to the media, confirming that PDGF can be a physiologically relevant regulator of SMN levels (FIG. 21c). […]
Cellular lysates from fibroblasts GM09677 treated with 50 ng/ml of PDGF-BB for 30 minutes and untreated control fibroblasts were collected and hybridized with the phosphor-kinase array membranes accordingly to the manufacture protocol (R&D Systems). […] Levels of phosphorylated protein were detected by measurement on the X-ray film (Kodak).

motor neurons = assay: Motor neuron survival (mouse motor neurons, compound treatment); assay type: cell-based
Procedure: Mouse motor neurons were treated with […] inhibitors. The levels of both cytoplasmic and nuclear SMN were detected and quantified using the method described in Example 2. The results shown in FIG. 14b indicate that […] inhibitors increase motor neuron survival.
Another way of assessing motor neuron survival is by withdrawing the neurotrophic factors from the media. Briefly, motor neurons are grown in media containing neurotrophic factors. The neurotrophic factors are then withdrawn from the growth media, e.g., cells transferred to media having no neurotrophic factors or neurotrophic factor containing media exchanged with neurotrophic factors lacking media. The compound of interest is added and motor neurons are counted on a daily basis.

Row | Compound | protection from EGTA induced death (PC12 cells) | SMN levels in human iPS derived motor neurons (in words) (SMN [1]) | SMN level in fibroblast screen (increase or decrease) (SMN [2]) | survival of motor neurons after SMN knockdown (in words) ([3]; 1.25, 2.5 or 5 uM) | surviving motor neurons compared to DMSO ([3]; by the second day) | surviving motor neurons compared to DMSO ([3]; by the third day) | effect on Erk1 and 2 kinase phosphorylation [4] | kinases phosphorylated upon stimulation [4] | motor neuron survival (in words) (motor neurons)
1 | O=C1Cc2c([nH]c3ccc([N+](=O)[O-])cc23)-c2ccccc2N1 [Alsterpaullone] | able to protect PC12 cells from EGTA induced death | Increased SMN levels | SMN is increase | able to rescue the survival; also recorded: rescues the survival of SMN-KD Motor Neurons up to control level | twice the amount of surviving cells | three fold difference | – | – | –
2 | PDGF | – | – | – | – | – | – | little effect | phosphorylation of Akt, RSK1, p38 and GSKa/b | no effect
